According to patent publication US6506913B2, “Dimethylfurancarboxyanilide derivatives” (Sankyo Company, Limited, priority 1994, dated 2003):

How the values were obtained:
Format in all cases: cell-based
[1] = tested on: Tyromyces palustris; assay: Minimum inhibitory concentration by the agar dilution method; conditions: potato dextrose agar, 25° C., 5 days
Source text: (§1) Assay of minimum inhibitory concentration by the agar dilution method.
(§2) According to the agar dilution method, on sterilized media (potato dextrose agar medium; potato extract powder 0.4%, glucose 2%, agar 1.5%) prepared to contain certain concentrations of a test sample, flora (about 4 mm in diameter) of wood rotting fungi, Coriolus versicolor and Tyromyces palustris, which has been cultured previously on the same kind of medium, were inoculated.
(§3) Whether there is any potentiation or not has been described in Applied Microbiology 9, 538-541 (1961) by F. C. Kull et al. The assay was carried out according to the method usually employed.

[2] = tested on: Coriolus versicolor; assay: as above; conditions: potato dextrose agar, 25° C., 5 days
Source text: as §1, §2, §3

[3] = tested on: Serpula lacrymans; assay: Wood preservation test JIS A-9201 (1991): impregnated Sugi sapwood, weathered, forcedly decayed for 12 weeks; conditions: weathering 10 cycles, 20° C., mean of 9 samples
Method: (1) According to the test method for wood preservation described in the Japan Industrial Standards [JIS A-9201 (1991)], each of the test compounds was dissolved to a defined concentration in methanol. The solution was impregnated under a reduced pressure into a Sugi (Japanese cedar) sapwood (2×2×1) cm and then air-dried. Weathering test was repeated 10 times in which one cycle of the treatment was stirring in water for 8 hours, and then heating for 16 hours at 60° C. The test material was placed on the flora of Serpula lacrymans which had been previously grown on a quartz sand medium (malt extract 2%, glucose 1%, peptone 0.3% and yeast 0.2%), and forcedly decayed at 20° C. for 12 weeks. From the difference between the dry weight of the test material before the test and that after test, the degree of decrease in weight was obtained. […] The test was carried out by use of 9 samples for each condition, and the values shown in Table 2 are the mean values calculated from 9 samples.

[4] = tested on: Tyromyces palustris; assay: Wood preservative efficacy on impregnated Sugi sapwood: hyphal growth and maximum crushing strength; parameters: key: +: No hyphal growth was observed on the test material, and no difference was found in the maximum crushing strength from the healthy wood sample.; ±: A little hyphal growth was observed on the test material, or a little decrease was found in the maximum crushing strength.; −: Hyphal growth was observed on the test material, or clear decrease was found in the maximum crushing strength; conditions: 0.1 w/v % methanol solution impregnated; weathering twice; 26° C., 3 weeks
Method: (§4) Weathering test was repeated twice in which one cycle of the treatment was washing (about 2 liter per minute supply) with water for 5 hours, and then heating for 19 hours at 60° C. After dry air sterilization, the test samples were prepared. The test materials were placed on the flora of Coriolus versicolor which is a lignin-decomposing fungus, and of Tryomyces palustris which is a cellulose-decomposing fungus, and both of which are designated fungal species for assay of wood preservating effect. Both fungi had been previously grown on an agar medium (malt extract 2%, glucose 1% and peptone 0.5%). After the wood samples were forcedly deteriorated at 26° C. for 3 weeks, the effectiveness was determined from the degree of hyphal growth on the test material and the presence or absence of lowered maximum crushing strength. […] The wood preventive efficacy was judged by the following criteria. +: No hyphal growth was observed on the test material, and no difference was found in the maximum crushing strength from the healthy wood sample. ±: A little hyphal growth was observed on the test material, or a little decrease was found in the maximum crushing strength. −: Hyphal growth was observed on the test material, or clear decrease was found in the maximum crushing strength.

[5] = tested on: Coriolus versicolor; assay: as above; parameters: key: +: No hyphal growth was observed on the test material, and no difference was found in the maximum crushing strength from the healthy wood sample.; ±: A little hyphal growth was observed on the test material, or a little decrease was found in the maximum crushing strength.; −: Hyphal growth was observed on the test material, or clear decrease was found in the maximum crushing strength; conditions: 0.1 w/v % methanol solution impregnated; weathering twice; 26° C., 3 weeks
Method: as §4

[6] = impregnant concentration 0.005 % in methanol
[7] = impregnant concentration 0.01 % in methanol

MIC (ppm), single agent [1] [ppm] | MIC (ppm), single agent [2] [ppm] | Structure (SMILES) | Mean weight decrease by decay (%) [3, 6] [%] | Mean weight decrease by decay (%) [3, 7] [%] | Wood preventive efficacy, Tyromyces palustris [4] | Wood preventive efficacy, Coriolus versicolor [5]
2 | 6 | Clc1ccc(OCOCC#CI)cc1 [Control compound 1, 4-Chlorophenyl-3-iodopropargylformal, reference compound] | 18.6 | 9.7 |  | 
25 | 15 | CCOC(=O)OCC(I)=C(Br)I [Control compound 2, 3-Bromo-2,3-diiodo-2-propenylethylcarbonate, reference compound] |  |  | + | +
 |  | CC(=O)Nc1cccc(NC(=O)c2cc(C)oc2C)c1 [Example 1, 2,5-Dimethylfuran-3-carboxy(3-acetylaminoanilide)] |  |  | − | ±
 |  | CNC(=O)c1cccc(NC(=O)c2cc(C)oc2C)c1 [Example 2, 2.5-Dimethylfuran-3-carboxy[3-(N-methylcarbamoyl)anilide]] |  |  | − | −
 |  | Cc1cc(C(=O)Nc2cccc(C(=O)N3CCCCC3)c2)c(C)o1 [Example 3, 2,5-Dimethylfuran-3-carboxy[3-(1-piperidylcarbonyl)anilide]] |  |  | − | −
 |  | Cc1cc(C(=O)Nc2cccc(C(=O)Nc3ccccc3)c2)c(C)o1 [Example 4, 2.5-Dimethylfuran-3-carboxyl[3-(N-phenylcarbamoyl)anilide]] |  |  | − | −
 |  | Cc1cc(C(=O)Nc2cccc(C(=O)OC(C)(C)C)c2)c(C)o1 [Example 5, 2,5-Dimethylfuran-3-carboxy(3-tert-butoxycarbonylanilide)] |  |  | − | −
 |  | COC(=O)c1cccc(NC(=O)c2cc(C)oc2C)c1 [Example 6, 2,5-Dimethylfuran-3-carboxy(3-methoxycarbonylanilide)] |  |  | + | +
 |  | Cc1cc(C(=O)Nc2cccc(C(=O)c3ccccc3)c2)c(C)o1 [Example 7, 2,5-Dimethylfuran-3-carboxy(3-benzoylanilide)] |  |  | − | +
 |  | Cc1cc(C(=O)Nc2cccc(NC(=O)c3ccccc3)c2)c(C)o1 [Example 8, 2,5-Dimethylfuran-3-carboxy(3-benzoylaminoanilide)] |  |  | − | ±
 |  | CCCCC(=O)Nc1cccc(NC(=O)c2cc(C)oc2C)c1 [Example 9, 2,5-Dimethylfuran-3-carboxy(3-valerylaminoanilide)] |  |  | − | −
 |  | Cc1cc(C(=O)Nc2cccc(NC(=O)C3CCCCC3)c2)c(C)o1 [Example 10, 2,5-Dimethylfuran-3-carboxy(3-cyclohexylcarbonylaminoanilide)] |  |  | − | +
 |  | COCc1cccc(NC(=O)c2cc(C)oc2C)c1 [Example 11, 2,5-Dimethylfuran-3-carboxy(3-methoxymethylanilide)] |  |  | ± | +
 |  | CCOCc1cccc(NC(=O)c2cc(C)oc2C)c1 [Example 12, 2,5-Dimethylfuran-3-carboxy(3-ethoxymethylanilide)] |  |  | ± | ±
 |  | Cc1cc(C(=O)Nc2cccc(COC(C)C)c2)c(C)o1 [Example 13, 2,5-Dimethylfuran-3-carboxy(3-isopropyloxymethylanilide)] |  |  | + | +
 |  | COc1ccc(Cc2cccc(NC(=O)c3cc(C)oc3C)c2)cc1 [Example 14, 2,5-Dimethylfuran-3-carboxy[3-(4-methoxybenzyl)anilide]] |  |  | + | +
 |  | COC(=O)C=Cc1cccc(NC(=O)c2cc(C)oc2C)c1 [Example 15, 2,5-Dimethylfuran-3-carboxy[3-(2-methoxycarbonylvinyl)anilide]] |  |  | − | +
200 | 2.5 | CCc1cccc(NC(=O)c2cc(C)oc2C)c1 [Example 20, 2,5-Dimethylfuran-3-carboxy(3-ethylanilide)] | 0.1 | 0 | + | +
200 | 10.0 | Cc1cc(C(=O)Nc2cccc(C(C)C)c2)c(C)o1 [Example 21, 2,5-Dimethylfuran-3-carboxy(3-isopropylanilide)] | 0 | 0 | + | +
 |  | CCCCCCc1cccc(NC(=O)c2cc(C)oc2C)c1 [Example 23, 2,5-Dimethylfuran-3-carboxy(3-hexylanilide)] |  |  | + | +
 |  | CCCCc1cccc(NC(=O)c2cc(C)oc2C)c1 [Example 24, 2,5-Dimethylfuran-3-carboxy(3-butylanilide)] |  |  | + | +
 |  | CCC(C)c1cccc(NC(=O)c2cc(C)oc2C)c1 (stereo not drawn) [Example 25, 2,5-Dimethylfuran-3-carboxy(3-sec-butylanilide)] |  |  | + | +
 |  | CCCCCc1cccc(NC(=O)c2cc(C)oc2C)c1 [Example 26, 2,5-Dimethylfuran-3-carboxy(3-pentylanilide)] |  |  | + | +

Structure (SMILES) | MIC (ppm), single agent [1] [ppm] | MIC (ppm), single agent [2] [ppm] | Mean weight decrease by decay (%) [3, 6] [%] | Mean weight decrease by decay (%) [3, 7] [%] | Wood preventive efficacy, Tyromyces palustris [4] | Wood preventive efficacy, Coriolus versicolor [5]
CCCCNC(=O)OCC#CI [B] | 2.5 | 25 |  |  |  | 
